Measured values as given in US10213433B2 (AbbVie Inc., priority 2010, dated 2019).

Target: Bcl-2 protein (Homo sapiens (Human), UniProt P10415)
Test: Bcl-2 binding TR-FRET (Time-Resolved Fluorescence-Resonance-Energy-Transfer) assay
Conditions: inhibition constant for binding to Bcl-2 protein
Source text: The smaller the Ki value, the greater is the binding affinity.

Bcl-2 protein, sequence (P10415 whole entry): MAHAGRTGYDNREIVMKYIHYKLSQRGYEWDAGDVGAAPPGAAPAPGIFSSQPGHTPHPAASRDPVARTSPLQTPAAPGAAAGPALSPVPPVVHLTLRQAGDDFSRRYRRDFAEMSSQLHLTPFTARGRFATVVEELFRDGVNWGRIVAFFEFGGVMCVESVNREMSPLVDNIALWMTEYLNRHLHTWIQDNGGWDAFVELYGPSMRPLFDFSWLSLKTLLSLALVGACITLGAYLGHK

SMILES | Ki [nM]
COCCN1CCOC(CNc2ccc(S(=O)(=O)NC(=O)c3ccc(N4CCN(CC5=C(c6ccc(Cl)cc6)CC(C)(C)CC5)CC4)cc3Oc3cnc4[nH]ccc4c3)cc2[N+](=O)[O-])C1 (stereo not shown) [Compound 135, 4-(4-{[2-(4-chlorophenyl)-4,4-dimethylcyclohex-1-en-1-yl]methyl}piperazin-1-yl)-N-{[4-({[4-(2-methoxyethyl)morpholin-2-yl]methyl}amino)-3-nitrophenyl]sulfonyl}-2-(1H-pyrrolo[2,3-b]pyridin-5-yloxy)benzamide] | < 0.01
CC(=O)N1CCOC(CNc2ccc(S(=O)(=O)NC(=O)c3ccc(N4CCN(CC5=C(c6ccc(Cl)cc6)CC(C)(C)CC5)CC4)cc3Oc3cnc4[nH]ccc4c3)cc2[N+](=O)[O-])C1 (stereo not shown) [Compound 136, N-[(4-{[(4-acetylmorpholin-2-yl)methyl]amino}-3-nitrophenyl)sulfonyl]-4-(4-{[2-(4-chlorophenyl)-4,4-dimethylcyclohex-1-en-1-yl]methyl}piperazin-1-yl)-2-(1H-pyrrolo[2,3-b]pyridin-5-yloxy)benzamide] | < 0.01
CC1(C)CCC(CN2CCN(c3ccc(C(=O)NS(=O)(=O)c4ccc(NCC5(F)CCOCC5)c([N+](=O)[O-])c4)c(Oc4cnc5[nH]ccc5c4)c3)CC2)=C(c2ccc(Cl)cc2)C1 [Compound 138, 4-(4-{[2-(4-chlorophenyl)-4,4-dimethylcyclohex-1-en-1-yl]methyl}piperazin-1-yl)-N-[(4-{[(4-fluorotetrahydro-2H-pyran-4-yl)methyl]amino}-3-nitrophenyl)sulfonyl]-2-(1H-pyrrolo[2,3-b]pyridin-5-yloxy)benzamide] | < 0.01
CC1(C)CCC(CN2CCN(c3ccc(C(=O)NS(=O)(=O)c4ccc(NC5CCN(C6COC6)CC5)c([N+](=O)[O-])c4)c(Oc4cnc5[nH]ccc5c4)c3)CC2)=C(c2ccc(Cl)cc2)C1 [Compound 139, 4-(4-{[2-(4-chlorophenyl)-4,4-dimethylcyclohex-1-en-1-yl]methyl}piperazin-1-yl)-N-({3-nitro-4-[(1-oxetan-3-ylpiperidin-4-yl)amino]phenyl}sulfonyl)-2-(1H-pyrrolo[2,3-b]pyridin-5-yloxy)benzamide] | < 0.01
CC1(C)CCC(CN2CCN(c3ccc(C(=O)NS(=O)(=O)c4ccc(NC5CCN(C6CCC6)CC5)c([N+](=O)[O-])c4)c(Oc4cnc5[nH]ccc5c4)c3)CC2)=C(c2ccc(Cl)cc2)C1 [Compound 140, 4-(4-{[2-(4-chlorophenyl)-4,4-dimethylcyclohex-1-en-1-yl]methyl}piperazin-1-yl)-N-({4-[(1-cyclobutylpiperidin-4-yl)amino]-3-nitrophenyl}sulfonyl)-2-(1H-pyrrolo[2,3-b]pyridin-5-yloxy)benzamide] | < 0.01
CC1(C)CCC(CN2CCN(c3ccc(C(=O)NS(=O)(=O)c4ccc(NC5CCN(C6CCOC(C)(C)C6)CC5)c([N+](=O)[O-])c4)c(Oc4cnc5[nH]ccc5c4)c3)CC2)=C(c2ccc(Cl)cc2)C1 (stereo not shown) [Compound 141, 4-(4-{[2-(4-chlorophenyl)-4,4-dimethylcyclohex-1-en-1-yl]methyl}piperazin-1-yl)-N-[(4-{[1-(2,2-dimethyltetrahydro-2H-pyran-4-yl)piperidin-4-yl]amino}-3-nitrophenyl)sulfonyl]-2-(1H-pyrrolo[2,3-b]pyridin-5-yloxy)benzamide] | < 0.01
CC1(C)CCC(CN2CCN(c3ccc(C(=O)NS(=O)(=O)c4ccc(NC5CCN(C6CCOC6)CC5)c([N+](=O)[O-])c4)c(Oc4cnc5[nH]ccc5c4)c3)CC2)=C(c2ccc(Cl)cc2)C1 (stereo not shown) [Compound 143, 4-(4-{[2-(4-chlorophenyl)-4,4-dimethylcyclohex-1-en-1-yl]methyl}piperazin-1-yl)-N-({3-nitro-4-[(1-tetrahydrofuran-3-ylpiperidin-4-yl)amino]phenyl}sulfonyl)-2-(1H-pyrrolo[2,3-b]pyridin-5-yloxy)benzamide] | < 0.01
CC1(C)CCC(CN2CCN(c3ccc(C(=O)NS(=O)(=O)c4ccc(N[C@@H]5CCN(C6CC6)C5)c([N+](=O)[O-])c4)c(Oc4cnc5[nH]ccc5c4)c3)CC2)=C(c2ccc(Cl)cc2)C1 [Compound 144, 4-(4-{[2-(4-chlorophenyl)-4,4-dimethylcyclohex-1-en-1-yl]methyl}piperazin-1-yl)-N-[(4-{[(3R)-1-cyclopropylpyrrolidin-3-yl]amino}-3-nitrophenyl)sulfonyl]-2-(1H-pyrrolo[2,3-b]pyridin-5-yloxy)benzamide] | < 0.01
CC1(C)CCC(CN2CCN(c3ccc(C(=O)NS(=O)(=O)c4ccc(NC[C@@H]5CCN(C6CCOCC6)C5)c([N+](=O)[O-])c4)c(Oc4cnc5[nH]ccc5c4)c3)CC2)=C(c2ccc(Cl)cc2)C1 [Compound 145, 4-(4-{[2-(4-chlorophenyl)-4,4-dimethylcyclohex-1-en-1-yl]methyl}piperazin-1-yl)-N-{[3-nitro-4-({[(3S)-1-tetrahydro-2H-pyran-4-ylpyrrolidin-3-yl]methyl}amino)phenyl]sulfonyl}-2-(1H-pyrrolo[2,3-b]pyridin-5-yloxy)benzamide] | < 0.01
CC(C)(CO)CNc1ccc(S(=O)(=O)NC(=O)c2ccc(N3CCN(CC4=C(c5ccc(Cl)cc5)CC(C)(C)CC4)CC3)cc2Oc2cnc3[nH]ccc3c2)cc1[N+](=O)[O-] [Compound 146, 4-(4-{[2-(4-chlorophenyl)-4,4-dimethylcyclohex-1-en-1-yl]methyl}piperazin-1-yl)-N-({4-[(3-hydroxy-2,2-dimethylpropyl)amino]-3-nitrophenyl}sulfonyl)-2-(1H-pyrrolo[2,3-b]pyridin-5-yloxy)benzamide] | < 0.01
CC1(C)CCC(CN2CCN(c3ccc(C(=O)NS(=O)(=O)c4ccc(NCC5CCCN(S(C)(=O)=O)C5)c([N+](=O)[O-])c4)c(Oc4cnc5[nH]ccc5c4)c3)CC2)=C(c2ccc(Cl)cc2)C1 (stereo not shown) [Compound 147, 4-(4-{[2-(4-chlorophenyl)-4,4-dimethylcyclohex-1-en-1-yl]methyl}piperazin-1-yl)-N-{[4-({[1-(methylsulfonyl)piperidin-3-yl]methyl}amino)-3-nitrophenyl]sulfonyl}-2-(1H-pyrrolo[2,3-b]pyridin-5-yloxy)benzamide] | < 0.01
CC(=O)N1CCCC(CNc2ccc(S(=O)(=O)NC(=O)c3ccc(N4CCN(CC5=C(c6ccc(Cl)cc6)CC(C)(C)CC5)CC4)cc3Oc3cnc4[nH]ccc4c3)cc2[N+](=O)[O-])C1 (stereo not shown) [Compound 148, N-[(4-{[(1-acetylpiperidin-3-yl)methyl]amino}-3-nitrophenyl)sulfonyl]-4-(4-{[2-(4-chlorophenyl)-4,4-dimethylcyclohex-1-en-1-yl]methyl}piperazin-1-yl)-2-(1H-pyrrolo[2,3-b]pyridin-5-yloxy)benzamide] | < 0.01
CC1(C)CCC(CN2CCN(c3ccc(C(=O)NS(=O)(=O)c4ccc(N[C@@H]5CCN(S(C)(=O)=O)C5)c([N+](=O)[O-])c4)c(Oc4cnc5[nH]ccc5c4)c3)CC2)=C(c2ccc(Cl)cc2)C1 [Compound 149, 4-(4-{[2-(4-chlorophenyl)-4,4-dimethylcyclohex-1-en-1-yl]methyl}piperazin-1-yl)-N-[(4-{[(3R)-1-(methylsulfonyl)pyrrolidin-3-yl]amino}-3-nitrophenyl)sulfonyl]-2-(1H-pyrrolo[2,3-b]pyridin-5-yloxy)benzamide] | < 0.01
CC1(C)CCCC(CN2CCN(c3ccc(C(=O)NS(=O)(=O)c4ccc(NCC5CCOCC5)c([N+](=O)[O-])c4)c(Oc4cnc5[nH]ccc5c4)c3)CC2)=C1c1ccc(Cl)cc1 [Compound 150, 4-(4-{[2-(4-chlorophenyl)-3,3-dimethylcyclohex-1-en-1-yl]methyl}piperazin-1-yl)-N-({3-nitro-4-[(tetrahydro-2H-pyran-4-ylmethyl)amino]phenyl}sulfonyl)-2-(1H-pyrrolo[2,3-b]pyridin-5-yloxy)benzamide] | < 0.01
CC1(C)CCC(CN2CCN(c3ccc(C(=O)NS(=O)(=O)c4ccc(NCC5CCN(S(C)(=O)=O)C5)c([N+](=O)[O-])c4)c(Oc4cnc5[nH]ccc5c4)c3)CC2)=C(c2ccc(Cl)cc2)C1 (stereo not shown) [Compound 152, 4-(4-{[2-(4-chlorophenyl)-4,4-dimethylcyclohex-1-en-1-yl]methyl}piperazin-1-yl)-N-{[4-({[1-(methylsulfonyl)pyrrolidin-3-yl]methyl}amino)-3-nitrophenyl]sulfonyl}-2-(1H-pyrrolo[2,3-b]pyridin-5-yloxy)benzamide] | < 0.01
CC(=O)N1CCC(CNc2ccc(S(=O)(=O)NC(=O)c3ccc(N4CCN(CC5=C(c6ccc(Cl)cc6)CC(C)(C)CC5)CC4)cc3Oc3cnc4[nH]ccc4c3)cc2[N+](=O)[O-])C1 (stereo not shown) [Compound 153, N-[(4-{[(1-acetylpyrrolidin-3-yl)methyl]amino}-3-nitrophenyl)sulfonyl]-4-(4-{[2-(4-chlorophenyl)-4,4-dimethylcyclohex-1-en-1-yl]methyl}piperazin-1-yl)-2-(1H-pyrrolo[2,3-b]pyridin-5-yloxy)benzamide] | < 0.01
CC(=O)N1CC[C@@H](Nc2ccc(S(=O)(=O)NC(=O)c3ccc(N4CCN(CC5=C(c6ccc(Cl)cc6)CC(C)(C)CC5)CC4)cc3Oc3cnc4[nH]ccc4c3)cc2[N+](=O)[O-])C1 [Compound 154, N-[(4-{[(3R)-1-acetylpyrrolidin-3-yl]amino}-3-nitrophenyl)sulfonyl]-4-(4-{[2-(4-chlorophenyl)-4,4-dimethylcyclohex-1-en-1-yl]methyl}piperazin-1-yl)-2-(1H-pyrrolo[2,3-b]pyridin-5-yloxy)benzamide] | < 0.01
CC1(C)CCC(CN2CCN(c3ccc(C(=O)NS(=O)(=O)c4ccc(NC[C@@H]5CC[C@@H](O)C5)c([N+](=O)[O-])c4)c(Oc4cnc5[nH]ccc5c4)c3)CC2)=C(c2ccc(Cl)cc2)C1 [Compound 156, 4-(4-{[2-(4-chlorophenyl)-4,4-dimethylcyclohex-1-en-1-yl]methyl}piperazin-1-yl)-N-{[4-({[(1R,3R)-3-hydroxycyclopentyl]methyl}amino)-3-nitrophenyl]sulfonyl}-2-(1H-pyrrolo[2,3-b]pyridin-5-yloxy)benzamide] | < 0.01
CC1(C)CCC(CN2CCN(c3ccc(C(=O)NS(=O)(=O)c4ccc(NC[C@H]5CC[C@H](O)C5)c([N+](=O)[O-])c4)c(Oc4cnc5[nH]ccc5c4)c3)CC2)=C(c2ccc(Cl)cc2)C1 [Compound 157, 4-(4-{[2-(4-chlorophenyl)-4,4-dimethylcyclohex-1-en-1-yl]methyl}piperazin-1-yl)-N-{[4-({[(1S,3S)-3-hydroxycyclopentyl]methyl}amino)-3-nitrophenyl]sulfonyl}-2-(1H-pyrrolo[2,3-b]pyridin-5-yloxy)benzamide] | < 0.01
